Data taken from patent US4027039A (priority 1975, dated 1977).
Where two headings read alike, the source gives them in different places.

Experiments:
Vaccinia virus = tested on: Vaccinia virus; design: species or system fertile eggs; conditions: various concentrations
Herpes virus [1] = tested on: Herpes virus
Herpes virus [2] = assay: Herpes virus in chicken eggs, single dose 24 hours pre-infection; type: in vivo, chick embryo
[3] = tested on: Influenza, Ann Arbor virus; assay: Influenza Ann Arbor in mice, subcutaneous; late read day 9 (Table 11), 7 (Tables 12, 14), 5 (Table 13); type: in vivo, mouse; conditions: total dose .05 μg
[4] = tested on: Influenza B Massachusetts virus; assay: Influenza B Mass. in mice, oral; late read day 5 (Table 39), 7 (Table 40), 11 (Tables 61, 65); control fraction 16/20 (Table 61), else 100%; type: in vivo, mouse
Procedure: A portion of a commercially available sample of amantadine was recrystallized from isopropanol. The activity of the material against Influenza B Mass. was tested for the sample as obtained, the recrystallized portion, and the mother liquor obtained from recrystallizing the portion.

Influenza PR 8 virus = assay: Influenza PR 8 in mice, oral; schedule by table; late read day 6 (Table 37), 7 (33, 36), 8 (32, 35, 47), 10 (38); control fraction 18/20 (Table 32), 19/20 (Table 35), else 100%; type: in vivo, mouse

NNC(N)=O [semicarbazide]
effect on pox formation on the membrane (Vaccinia virus): No effect
animals survived (Herpes virus [1]; mouse, in vivo): 20 to 30%
animals protected (Herpes virus [1]; no pre-treatment, one dose level): 50%
No. animals surviving after 6-9 days (Herpes virus [1]; total dose 5 μg): 7
No. animals surviving after 6-9 days (Herpes virus [1]; total dose .00005 μg): 5
No. animals surviving when 100% (or given fraction) of controls are dead (Herpes virus [1]; total dose .00005 μg): 5
No. animals surviving when 100% (or given fraction) of controls are dead (Herpes virus [1]; total dose .0005 μg): 0
No. animals surviving after 6-9 days (Herpes virus [1]; total dose .05 μg): 5
No. dying 5-22 day (Herpes virus [2]; 2 μg): 0
No. living longer than controls (Herpes virus [2]; 2 μg): 0
Total deaths, 4th day (Herpes virus [2]; 2 μg): 10
Deaths on day 2 (Herpes virus [2]; 20 μg): 1
Deaths on day 3 (Herpes virus [2]; 20 μg): 5
No. dying 5-22 day (Herpes virus [2]; 20 μg): 0
No. living longer than controls (Herpes virus [2]; 20 μg): 1
Total deaths, 4th day (Herpes virus [2]; 20 μg): 11
Deaths on day 1 (Herpes virus [2]; .00005 μg): 4
Deaths on day 3 (Herpes virus [2]; .00005 μg): 4
No. dying 5-22 day (Herpes virus [2]; .00005 μg): 1
No. living longer than controls (Herpes virus [2]; .00005 μg): 1
Total deaths, 4th day (Herpes virus [2]; .00005 μg): 11
Deaths on day 3 (Herpes virus [2]; .0005 μg): 6
Deaths on day 4 (Herpes virus [2]; .0005 μg): 1
No. dying 5-22 day (Herpes virus [2]; .0005 μg): 0
No. hatched (Herpes virus [2]; .0005 μg): 1
No. living longer than controls (Herpes virus [2]; .0005 μg): 1
Total deaths, 4th day (Herpes virus [2]; .0005 μg): 11
No. hatched (Herpes virus [2]; .005 μg): 1
No. living longer than controls (Herpes virus [2]; .005 μg): 4
Total deaths, 4th day (Herpes virus [2]; .005 μg): 7
Deaths on day 1 (Herpes virus [2]; .05 μg): 1
Deaths on day 2 (Herpes virus [2]; .05 μg): 4
Deaths on day 3 (Herpes virus [2]; .05 μg): 6
No. dying 5-22 day (Herpes virus [2]; .05 μg): 0
No. living longer than controls (Herpes virus [2]; .05 μg): 1
Total deaths, 4th day (Herpes virus [2]; .05 μg): 11
Deaths on day 3 (Herpes virus [2]; .5 μg): 5
Total deaths, 4th day (Herpes virus [2]; .5 μg): 9
Total no. living longer than controls (Herpes virus [2]; all doses): 10
No. animals surviving after 5-9 days [3]: 0
No. animals surviving when 100% (Table 61: 16/20) of controls are dead ([4]; total dose .000005 μg (5 pg)): 0
Survivors ([4]; total dose .000005 μg (5 pg)): 0
No. animals surviving when 100% (Table 61: 16/20) of controls are dead ([4]; total dose .00005 μg (50 pg)): 0
Survivors ([4]; total dose .00005 μg (50 pg)): 0
No. animals surviving when 100% (Table 61: 16/20) of controls are dead ([4]; total dose .0005 μg (500 pg)): 1
Survivors ([4]; total dose .0005 μg (500 pg)): 0
No. animals surviving after 5 days (Table 61: 11 days) ([4]; total dose .005 μg (5 ng)): 6
No. animals surviving when 100% (Table 61: 16/20) of controls are dead ([4]; total dose .005 μg (5 ng)): 3
Survivors ([4]; total dose .005 μg (5 ng)): 0
No. animals surviving after 5 days (Table 61: 11 days) ([4]; total dose .05 μg (50 ng)): 6
No. animals surviving when 100% (Table 61: 16/20) of controls are dead ([4]; total dose .05 μg (50 ng)): 1
Survivors ([4]; total dose .05 μg (50 ng)): 0
No. animals surviving when 100% (Table 61: 16/20) of controls are dead ([4]; total dose .5 μg (500 ng)): 1
Survivors ([4]; total dose .5 μg (500 ng)): 0
Survivors (Influenza PR 8 virus; total dose .000005 μg): 0
No. animals surviving when 100% (or given fraction) of controls are dead (Influenza PR 8 virus; total dose .00005 μg): 0
Survivors (Influenza PR 8 virus; total dose .00005 μg): 0
No. animals surviving when 100% (or given fraction) of controls are dead (Influenza PR 8 virus; total dose .0005 μg): 0
Survivors (Influenza PR 8 virus; total dose .0005 μg): 0
No. animals surviving when 100% (or given fraction) of controls are dead (Influenza PR 8 virus; total dose .005 μg): 0
Survivors (Influenza PR 8 virus; total dose .005 μg): 0
